Results: the supplement of paper PMC10949913
± gives the standard deviation of the averaged measurements.

Columns and labels:
CU-ACC1 = test: ExcessHSA synergy score with TAK-243; higher = less synergy (negative = synergistic); settings: combined with: TAK-243 (MLN-7243) matrix, 9-point 1:2 dilution
Method: (§1)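 Each drug was tested at 9 points with 1:2 dilution; viability was read by CellTiter-Glo as in the single-agent screen. Synergy is scored as ExcessHSA (sum of excess over highest single agent; negative = synergy) and the Beta interaction parameter (<1 synergy).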

NCI-H295R = test: as above; settings: combined with: TAK-243 (MLN-7243) matrix, 9-point 1:2 dilution
Method: as §1

| Structure (SMILES) | ExcessHSA synergy score with TAK-243 (CU-ACC1) | ExcessHSA synergy score with TAK-243 (NCI-H295R) |
| --- | --- | --- |
| CCN(C(=O)c1cc(F)ccc1Oc1cncnc1N1CC2(CCN(C[C@H]3CC[C@H](NS(=O)(=O)CC)CC3)CC2)C1)C(C)C [SNDX-5613] | -82.8 | 50 |
| Nc1nc(OCc2ccccc2)c2nc[nH]c2n1 [O6-Benzylguanine] | -248 | 45.7 |
| O=C(c1cc(-c2cc3c(cc2C(=O)N2Cc4ccccc4CC2CN2CCOCC2)OCO3)n2c1CCCC2)N(c1ccccc1)c1ccc(O)cc1 (stereo not drawn) | -937 | -903 |
| Cc1nc2ccc(F)cc2n1-c1nc(N)c(F)c(Nc2ccc(C(F)(F)F)cc2)n1 [PTC596] | -119 | -3.1 |
| CO[C@H]1/C=C/C[C@H](C)[C@@H](C)S(=O)(=O)NC(=O)c2ccc3c(c2)N(C[C@@H]2CC[C@H]21)C[C@@]1(CCCc2cc(Cl)ccc21)CO3 [AMG-176] | -10.7 | -202 |
| O=C(c1ccc(F)c(F)c1Nc1ccc(I)cc1F)N1CC(O)([C@@H]2CCCCN2)C1 [Cobimetinib] | 450 | 819 |
| CC(C)c1cc(-c2n[nH]c(=O)n2-c2ccc3c(ccn3C)c2)c(O)cc1O [Ganetespib (STA-9090)] | 400 | -59.8 |
| Cc1nc(-c2nc(-c3ccc(OC(F)(F)F)cc3)no2)nn1Cc1cccc(N2CCC(S(C)(=O)=O)CC2)c1 | 422 | 691 |
| CNC(=O)c1cccc(-c2ccc3c(N4CCOC[C@@H]4C)nc(N4CCOC[C@@H]4C)nc3n2)c1 [Vistusertib] | -211 ± 410 | -549 ± 350 |
| O=C(O)CNC(=O)c1ncc(-c2cccc(Cl)c2)cc1O | -199 | 289 |
| Cc1cccc(CC(=O)N2CCc3c2ccc(-c2cn(C)c4ncnc(N)c24)c3F)n1 | -151 | 173 |
| COC1CCC(n2c([C@@H]3CCCC(=O)N3c3ccc(F)c(F)c3)nc3cc(-c4c(C)noc4C)ccc32)CC1 (stereo partly drawn) [CBP/p300-IN-4] | -96.9 | -244 |
| COc1cc2c(c(OC)n1)[C@]1(O)[C@H](O)[C@H](CN(C)C)[C@@H](c3ccccc3)[C@]1(c1ccc(C#N)cc1)O2 [Zotatifin] | 1170 | 686 |
| C=CCNc1nc(N)c(C(=O)c2ccc(F)s2)s1 [TT-10] | 584 | 922 |
| C[C@H]1N=C(N(C)C)N=C(N)N1 [Imeglimin] | -159 | 50.3 |
| CNCc1ccc(-c2cc(-c3nc(-c4ccc(S(=O)(=O)C(C)C)cc4)cnc3N)on2)cc1 [Berzosertib] | -219 | 144 |
| CSC[C@H]1CN(Cc2c[nH]c3c(N)ncnc23)C[C@@H]1O [MT-DADMe-ImmA] | -323 | 422 |
| CC(C)C[C@H](NC(=O)[C@H](CCc1ccccc1)NC(=O)CN1CCOCC1)C(=O)N[C@@H](Cc1ccccc1)C(=O)N[C@@H](CC(C)C)C(=O)[C@@]1(C)CO1 [Carfilzomib] | -949 | -675 |
| CCc1cnn2c(NCc3ccc[n+]([O-])c3)cc(N3CCCC[C@H]3CCO)nc12 [Dinaciclib] | 86.7 | 170 |
